Test results as given in patent US20080287396A1, “Phosphonated Fluoroquinolones, Antibacterial Analogs Thereof, and Methods for the Prevention and Treatment of Bone and Joint Infections” (TARGANTA THERAPEUTICA INC., priority 2005, published 2008).
“Also recorded” adds a separate entry of the source.

Columns and labels:
[1] = test system: Hela cells; assay: Cytotoxicity assay (MTS reduction); assay type: cell-based; settings: concentrations up to 100 μM, 18 h, MTS reagent; data not shown
Method: Selected compounds were also tested for their ability to inhibit growth of mammalian cells so as to ascertain levels of cytotoxicity to the mammalian host, via an assay measuring the biological reduction of the inner salt of (3-(4,5-dimethylthiazol-2-yl)-5-(3-carboxymethoxyphenyl)-2-(4-sulfophenyl)-2H-tetrazolium (MTS reagent). Assays were performed in 96-well microtiter plates. Briefly, compounds at 100, 50, 25, and 12.5 μM concentrations were incubated with 2×10^4 Hela cells per well in Dulbecco's Modified Eagle Medium (Invitrogen Corporation) containing 1% Bovine Growth Serum (HyClone) for 18 h at 37° C. under 5% CO2.

[2] = Bone powder binding, fluorometric detection; settings: for Binding to bone (%) Fluorescence: 1 mg/ml compound, bone meal powder 10 mg/ml in PBS, 37° C., 1 h; for binding to osseous matter, in words: bisphosphonates bearing three hydroxy groups
Method: The ability of the example molecules to bind to bone powder was established in two parallel fashions, using either LC/MS or fluorometric detection. For LC/MS detection, a stock solution (5 mM) of the compound to be tested was added to 0.1M Tris-HCl buffer pH 7, 0.15M NaCl to reach a final concentration of 100 μM. Triplicate samples (1 mL) of the compound solutions were intensively shaken for 10 min with or without 25 mg of fresh or 20 mg of vacuum dried ground rat tibia bone. The samples were then centrifuged for 15 min at 10 000 g. The presence of unbound compound was measured by injection of 30 μL of each of the supernatants into an Agilent 1100™ LC/UV system. For fluorometric detection, an individual compound was dissolved in PBS or water (compound 52) and resuspended at a concentration of 1 mg/ml in a slurry of bone meal powder (Now Foods, Bloomingdale, Ill., USA) in PBS at 10 mg/ml. The suspension of drug/prodrug in bone meal powder was incubated at 37° C. for 1 h to allow for binding, and centrifuged at 13 000 rpm for 2 min, before recovering the supernatant. The bone meal powder pellet was then washed three times with 1 ml of PBS. All supernatants were saved and assessed for fluoroquinolone content by fluorescence measurements at excitation/emission wavelengths of 280/465 nm. The amount of fluoroquinolone was determined from standard curves generated for each experiment. Amount of drug/prodrug bound to bone powder was deduced from the difference between the input amount (typically 1 mg) and the amount recovered in the supernatants after binding. In all binding experiments, >99% of input drug was recovered in the supernatant for the parent drugs.

[3] = Regeneration of drug from bone powder-bound prodrug; assay type: in vitro ADME; settings: PBS vs serum
Method: Amounts of drug “regenerated” from the phosphonated parent prodrug were measured as follows. Washed bone powder-bound prodrugs from the above section were resuspended in 400 μL PBS or in 400 μL 50% (v/v in PBS) human or rat serum. […] Methanol (5× volume relative to supernatant) was added to each supernatant and the mixture was vortexed on a floor model vortex for 15 min to extract freed fluoroquinolone. The mixture was then centrifuged at 10 000 rpm for 15 min to pellet the insoluble material. The supernatant containing the extracted fluoroquinolone was recovered and evaporated to dryness in a speed vac. The dried pellets were resuspended in PBS and the amount of fluoroquinolone was determined by fluorescence measurements as described above. The percentage of drug regenerated was deduced from the difference between amount of bound prodrug and the amount of regenerated drug. The identity of regenerated drug was deduced by MIC determination; MICs of regenerated material matched those of parent drugs but not those of prodrugs.

[4] = test system: S. aureus ATCC 13709; assay: Prophylactic model of bone infection in rats; assay type: in vivo, rat; settings: for Measured bacterial titer (Log CFU/g of bone) Test compound: 15 mg/kg IV, 2 days prior to infection; for prophylactic effect in rat model of bone infection, in words: Table 4 and FIGS. 6-8, doses as in Table 4
Method: To determine the activity in vivo of bisphosphonated prodrugs of fluoroquinolones, compounds 52 and 107, derivatives of parent compounds moxifloxacin 3 (for 52), and compounds 39, 44, 49, 54, 121, 129, 141, 145, 149, derivatives of parent compound gatifloxacin 15, were used in a prophylactic model for infection. Specifically, S. aureus ATCC 13709 cells were grown overnight at 37° C. in brain heart infusion broth (BHIB). Cells were subcultured into fresh BHIB and incubated for 4 to 5 h at 37° C. The cells were washed twice with phosphate-buffered saline (PBS) and resuspended in BHIB supplemented with 10% (vol./vol.) fetal bovine serum at a density of approximately 10^10 colony forming units (CFU)/ml (based upon turbidimetry). The suspension was aliquoted and a portion was used to check the CFU count. The culture was stored frozen (−80° C.) and was used without subculture. For use as an inoculum the culture was thawed, diluted in PBS and kept in an ice bath until it was used.
Animals were infected as described by O'Reilly et al. (Antimicrobial Agents and Chemotherapy (1992), 36(12): 2693-97) to generate the bone infection. Female CD rats (age, 57 to 70 days; n=5/group; Charles River, St-Constant, Canada) were anaesthetized by isofluorane before and during the surgery. Following complete induction of anesthesia, the rat was placed ventral side up and hair was shaved from the surgical site. The skin over the leg was cleaned and disinfected (proviodine-ethanol 70%). A longitudinal incision below the knee joint was made in the sagital plane. The incision was made over the bone below the “knee joint” (tibia head or condyle) but not completely extending to the ankle. A high speed drill fitted with a 2 mm bulb bit was used to drill a hole into the medullar cavity of the tibia. Rats were injected intra-tibially with 0.05 ml 5% sodium morrhuate (sclerosing agent) and then with 0.05 ml of S. aureus suspension (ca. 5×10^5 CFU/rat). The hole was sealed by applying a small amount of dry dental cement which immediately absorbs fluids and adheres to the site. The wound was closed using 3 metal skin clips. Moxifloxacin 3 (as a positive control) was injected once at 10 mg/kg intravenously 1 h postinfection in saline, while the fluoroquinolone prodrugs (prepared in 0.9% saline) were injected as a single intravenous bolus dose at different time points prior to the infection. For comparison, the parent drug (moxifloxacin 3 or gatifloxacin 15) was also injected intravenously once at a molar equivalent dose at the same time point prior the infection.
Infected rats were sacrificed by CO2 asphyxiation 24 h postinfection to monitor the bacterial CFU count. Infected tibiae were removed, dissected free of soft tissue, and weighed. The bones were ground using a metal ball mill, resuspended in 5 ml 0.9% NaCl, serially diluted and processed for quantitative cultures. For compounds 39, 44, 49, 54, 141, 145, 149, 1 ml of the 0.9% NaCl solution was added to 50 mg of charcoal before serial dilutions. Treatment efficacies were measured in terms of Log viable bacteria (Log CFU per gram of bone). The results obtained for each group of rats were evaluated by calculating the mean Log CFU and standard deviation. The limit of detection is 2 Log CFU/g of bone. Statistical comparisons of viable bacterial counts for the different treated and untreated groups were performed with Dunnett's multiple-comparison test. Differences were considered significant when the P value was <0.05 when comparing treated infected animals to the untreated infected ones.

Row | Compound | Binding to bone (%) Fluorescence [2] [%] | effect of the medium (presence or absence of serum) on regeneration rate [3] | cytotoxicity [1] | other results
1 | COc1c(N2C[C@@H]3CCCN(CC(P(=O)(OC)OC)P(=O)(OC)OC)[C@@H]3C2)c(F)cc2c(=O)c(C(=O)O)cn(C3CC3)c12 [Compound 4, 7-((4aS,7aS)-1-(2,2-bis(dimethylphosphono)ethyl)-octahydropyrrolo[3,4-b]pyridin-6-yl)-1-cyclopropyl-6-fluoro-1,4-dihydro-8-methoxy-4-oxoquinoline-3-carboxylic acid] |  |  | no signs of any cytotoxicity | 
2 | COP(=O)(OC)C(CN1CCN(c2cc3c(cc2F)c(=O)c(C(=O)O)cn3C2CC2)CC1)P(=O)(OC)OC [Compound 7, 7-(4-(2,2-bis(dimethylphosphono)ethyl)piperazin-1-yl)-1-cyclopropyl-6-fluoro-1,4-dihydro-4-oxoquinoline-3-carboxylic acid] |  |  | no signs of any cytotoxicity | 
3 | CCOP(=O)(OCC)C(NC(=O)COC(=O)c1cn(C2CC2)c2c(OC)c(N3CCN(C(=O)OC(C)(C)C)C(C)C3)c(F)cc2c1=O)P(=O)(OCC)OCC (centres unmarked) [Compound 53, (1,1-Bis(diethylphosphono)methylcarbamoyl)methyl 7-(4-(tert-butoxycarbonyl)-3-methylpiperazin-1-yl)-1-cyclopropyl-6-fluoro-1,4-dihydro-8-methoxy-4-oxoquinoline-3-carboxylate] |  |  | no signs of any cytotoxicity | 
4 | COc1c(N2CCN(C(=O)CC(C)(C)c3cc(P(=O)(O)CP(=O)(O)O)ccc3OP(=O)(O)O)C(C)C2)c(F)cc2c(=O)c(C(=O)O)cn(C3CC3)c12 (centres unmarked) [Compound 153, 7-(4-(3-(2-phosphoryloxy-5-((phosphonomethyl)phosphonoyl)phenyl)-3-methylbutanoyl)-3-methylpiperazin-1-yl)-1-cyclopropyl-6-fluoro-1,4-dihydro-8-methoxy-4-oxoquinoline-3-carboxylic acid] | 0 |  |  | binding to osseous matter, in words [2]: less effectively bound; also recorded: not bound at all; Measured bacterial titer (Log CFU/g of bone) Test compound [4]: 4.08 ± 0.54 Log CFU/g of bone; prophylactic effect in rat model of bone infection, in words [4]: unable to produce a positive result in vivo
5 | COC(=O)c1cn(C2CC2)c2c(OC)c(N3C[C@@H]4CCCN[C@@H]4C3)c(F)cc2c1=O [Compound 154, Methyl 1-cyclopropyl-6-fluoro-1,4-dihydro-7-((4aS,7aS)-octahydropyrrolo[3,4-b]pyridin-6-yl)-8-methoxy-4-oxoquinoline-3-carboxylate] |  |  | no signs of any cytotoxicity | 

Second part, led by results:

Row | Binding to bone (%) Fluorescence [2] [%] | effect of the medium (presence or absence of serum) on regeneration rate [3] | Compound | cytotoxicity [1] | other results
6 | 99.0 | fairly similar rates | COc1c(N2C[C@@H]3CCCN[C@@H]3C2)c(F)cc2c(=O)c(C(=O)OCC(=O)Nc3ccc(C(P(=O)(O)O)P(=O)(O)O)cc3)cn(C3CC3)c12 [Compound 73, (4-Bisphosphonomethylphenylcarbamoyl)methyl 1-cyclopropyl-6-fluoro-1,4-dihydro-7-((4aS,7aS)-octahydropyrrolo[3,4-b]pyridin-6-yl)-8-methoxy-4-oxoquinoline-3-carboxylate] |  | 
7 | 90.4 | fairly similar rates | COc1c(N2CCNC(C)C2)c(F)cc2c(=O)c(C(=O)OCC(=O)N(C)C(P(=O)(O)O)P(=O)(O)O)cn(C3CC3)c12 (centres unmarked) [Compound 82, (N-Methyl-1,1-Bisphosphonomethylcarbamoyl)methyl 7-(3-methylpiperazin-1-yl)-1-cyclopropyl-6-fluoro-1,4-dihydro-8-methoxy-4-oxoquinoline-3-carboxylate] |  | 
8 | 98.9 | fairly similar rates | COc1c(N2C[C@@H]3CCCN[C@@H]3C2)c(F)cc2c(=O)c(C(=O)Oc3ccc(C(P(=O)(O)O)P(=O)(O)O)cc3)cn(C3CC3)c12 [Compound 85, 4-(Bisphosphonomethyl)phenyl 1-cyclopropyl-6-fluoro-1,4-dihydro-7-((4aS,7aS)-octahydropyrrolo[3,4-b]pyridin-6-yl)-8-methoxy-4-oxoquinoline-3-carboxylate] |  | 
9 | 79.2 | fairly similar rates | COc1c(N2CCNC(C)C2)c(F)cc2c(=O)c(C(=O)Oc3ccc(C(P(=O)(O)O)P(=O)(O)O)cc3)cn(C3CC3)c12 (centres unmarked) [Compound 87, 4-(Bisphosphonomethyl)phenyl 7-(3-methylpiperazin-1-yl)-1-cyclopropyl-6-fluoro-1,4-dihydro-8-methoxy-4-oxoquinoline-3-carboxylate] |  | 
10 | 89.6 |  | CCCC(=O)Oc1ccc(P(=O)(O)CP(=O)(O)O)cc1C(C)(C)CC(=O)N1CCN(c2c(F)cc3c(=O)c(C(=O)O)cn(C4CC4)c3c2OC)CC1C (centres unmarked) [Compound 149, 7-(4-(3-(2-butyroxy-5-((phosphonomethyl)phosphonoyl)phenyl)-3-methylbutanoyl)-3-methylpiperazin-1-yl)-1-cyclopropyl-6-fluoro-1,4-dihydro-8-methoxy-4-oxoquinoline-3-carboxylic acid] |  | binding to osseous matter, in words [2]: less effectively bound; Measured bacterial titer (Log CFU/g of bone) Test compound [4]: 5.16 ± 0.72 Log CFU/g of bone; prophylactic effect in rat model of bone infection, in words [4]: unable to produce a positive result in vivo
